This is an account of results in US9394285B2 (Pfizer Inc., priority 2013, dated 2016).

This test concerns the target human AMPK (full-length γ1, β1 and α1 subunits) (Homo sapiens (Human), UniProt Q13131+Q9Y478). Put plainly: AMPK in vitro biochemical assay (33P-based, SAMS peptide, PP2A dephosphorylation). Particulars: for EC50: activation of phosphorylated AMPK, 33P-ATP, SAMS peptide, PP2A treatment, 4-parameter fit; for Emax: read-out: Maximum. The method in brief:
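Phosphorylated full-length α1β1γ1 AMPK (E. coli-expressed, His-purified, gel-filtered) preincubated 15 min RT with compound in HEPES pH 7.5, 10 mM MgCl2 buffer, then PP2A added to dephosphorylate pThr172.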

The mark [1] stands for this setting: counts as % of positive control wells (enzyme, allosteric activator or AMP, PP2A and substrate).

human AMPK (full-length γ1, β1 and α1 subunits), sequence (Q13131 whole entry): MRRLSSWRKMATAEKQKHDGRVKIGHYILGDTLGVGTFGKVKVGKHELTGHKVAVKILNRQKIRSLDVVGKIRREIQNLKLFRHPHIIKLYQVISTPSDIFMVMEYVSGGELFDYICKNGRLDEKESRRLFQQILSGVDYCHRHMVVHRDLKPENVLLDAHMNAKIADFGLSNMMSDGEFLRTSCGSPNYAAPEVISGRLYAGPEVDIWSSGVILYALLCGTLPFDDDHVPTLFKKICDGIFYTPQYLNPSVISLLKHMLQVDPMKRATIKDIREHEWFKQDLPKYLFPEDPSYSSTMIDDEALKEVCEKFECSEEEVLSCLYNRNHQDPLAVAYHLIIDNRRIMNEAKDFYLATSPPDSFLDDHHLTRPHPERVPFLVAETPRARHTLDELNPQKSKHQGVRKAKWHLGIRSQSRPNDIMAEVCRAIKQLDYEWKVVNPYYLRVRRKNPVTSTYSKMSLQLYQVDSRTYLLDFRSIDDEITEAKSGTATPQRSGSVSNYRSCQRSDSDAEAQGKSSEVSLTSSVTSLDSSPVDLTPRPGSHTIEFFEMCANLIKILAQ
human AMPK (full-length γ1, β1 and α1 subunits), sequence (Q9Y478 whole entry): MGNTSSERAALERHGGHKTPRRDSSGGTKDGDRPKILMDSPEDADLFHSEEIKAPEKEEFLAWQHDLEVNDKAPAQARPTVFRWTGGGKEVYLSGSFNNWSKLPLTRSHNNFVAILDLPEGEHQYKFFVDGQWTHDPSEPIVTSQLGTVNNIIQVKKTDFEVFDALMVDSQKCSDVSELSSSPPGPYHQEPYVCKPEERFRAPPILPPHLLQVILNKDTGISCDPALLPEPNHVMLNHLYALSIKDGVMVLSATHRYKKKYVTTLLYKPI
human AMPK (full-length γ1, β1 and α1 subunits), sequence (P54619 whole entry partner): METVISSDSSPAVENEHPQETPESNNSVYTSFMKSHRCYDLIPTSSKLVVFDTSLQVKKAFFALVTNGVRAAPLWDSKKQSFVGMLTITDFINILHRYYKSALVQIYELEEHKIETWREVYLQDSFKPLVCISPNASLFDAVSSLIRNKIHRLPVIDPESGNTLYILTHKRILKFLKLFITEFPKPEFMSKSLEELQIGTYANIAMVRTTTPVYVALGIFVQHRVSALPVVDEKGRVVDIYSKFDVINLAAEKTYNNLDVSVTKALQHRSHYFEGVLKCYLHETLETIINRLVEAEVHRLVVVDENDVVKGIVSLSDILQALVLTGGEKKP

By EC50 is commonly meant the midpoint of the concentration-response curve. `O=C(O)c1c[nH]c2cc(Cl)c(-c3ccc(OCc4cccnc4)cc3)cc12` [Example 94, 6-chloro-5-[4-(pyridin-3-ylmethoxy)phenyl]-1H-indole-3-carboxylic acid] returned an EC50 of 17.9 nM. Moreover, under setting [1], the Emax turned out to be 92%.
For `O=C(O)c1c[nH]c2cc(F)c(-c3ccc(C4(CO)CCC4)cc3)c(F)c12` [Example 141, 4,6-difluoro-5-(4-(1-(hydroxymethyl)cyclobutyl)phenyl)-1H-indole-3-carboxylic acid], the EC50 was found to be 9.3 nM. The same molecule came in with a Maximum under setting [1] of 119%.
`COc1nc(N2CCC(OC)C2)ccc1-c1cc2c(C(=O)O)c[nH]c2cc1Cl` (stereo in doubt) [Example 175, 6-chloro-5-{2-methoxy-6-[(3R)-3-methoxypyrrolidin-1-yl]pyridin-3-yl}-1H-indole-3-carboxylic acid] yielded an EC50 of 22.6 nM. In addition, the Emax under setting [1] turned out to be 78.2%.
On the same counts, the results for `O=C(O)c1c[nH]c2cc(Cl)c(-c3ccc(OCCCC4COC4)cc3)cc12` [Example 157, 6-chloro-5-(4-(3-(oxetan-3-yl)propoxy)phenyl)-1H-indole-3-carboxylic acid] are 50.1 nM and 96.1%.
`O=C(O)c1c[nH]c2cc(F)c(-c3ccc(CO)cc3)cc12` [Example 7, 6-fluoro-5-[4-(hydroxymethyl)phenyl]-1H-indole-3-carboxylic acid] came in with an EC50 of 671 nM. For the same molecule, under setting [1], the Emax was 78%.
As for `COc1cc(-c2cc3c(C(=O)O)c[nH]c3cc2Cl)ccc1C1(O)CCC1` [Example 61, 6-chloro-5-[4-(1-hydroxycyclobutyl)-3-methoxyphenyl]-1H-indole-3-carboxylic acid], the EC50 is 2.3 nM. Under setting [1], the Emax turned out to be 57%.
On the same counts, the results for `COc1nc(N2CC[C@H](O)C2)ccc1-c1cc2c(C(=O)O)c[nH]c2cc1Cl` [Example 184, 6-chloro-5-{6-[(3S)-3-hydroxypyrrolidin-1-yl]-2-methoxypyridin-3-yl}-1H-indole-3-carboxylic acid] are 6.2 nM and 84%.
In the same order, the values of `COc1nc(N2CCOCC2)ccc1-c1cc2c(C(=O)O)c[nH]c2cc1Cl` [Example 174, 6-chloro-5-[2-methoxy-6-(morpholin-4-yl)pyridin-3-yl]-1H-indole-3-carboxylic acid] are 15.3 nM and 49.4%.
In the same order, the values of `O=C(O)c1c[nH]c2cc(Cl)c(-c3ccc(C4(C(=O)O)CCC4)cc3)cc12` [Example 78, 5-[4-(1-carboxycyclobutyl)phenyl]-6-chloro-1H-indole-3-carboxylic acid] are 2000 nM and 68%.
`COc1nc(-c2cc3c(C(=O)O)c[nH]c3cc2Cl)ccc1N1CCC(O)C1` (centres unmarked) [Example 149, 6-chloro-5-[5-(3-hydroxypyrrolidin-1-yl)-6-methoxypyridin-2-yl]-1H-indole-3-carboxylic acid] returned an EC50 of 76.9 nM. Moreover, the Emax under setting [1] was determined as 88.9%.
In the same order, the values of `COc1ccc(-c2cc3c(C(=O)O)c[nH]c3cc2Cl)cc1` [Example 33, 6-Chloro-5-(4-methoxy-phenyl)-1H-indole-3-carboxylic acid] are 85.3 nM and 83%.
Consider `O=C(O)c1c[nH]c2cc(Cl)c(-c3ccc(C4(CO)CCC4)cc3F)cc12` [Example 164, 6-chloro-5-{2-fluoro-4-[1-(hydroxymethyl)cyclobutyl]phenyl}-1H-indole-3-carboxylic acid], for which a half-maximal effect (EC50) was put at 17.5 nM. For the same molecule, the Emax under setting [1] was found to be 142%.
On the same counts, the results for `O=C(O)c1c[nH]c2cc(Cl)c(-c3ccc(OC4COC4)cc3)cc12` [Example 18, 6-chloro-5-[4-(oxetan-3-yloxy)phenyl]-1H-indole-3-carboxylic acid] are 181 nM and 92%.
On the same counts, the results for `O=C(O)c1c[nH]c2cc(Cl)c(-c3ccc(C4(O)CCC4)c(F)c3)cc12` [Example 42, 6-chloro-5-[3-fluoro-4-(1-hydroxycyclobutyl)phenyl]-1H-indole-3-carboxylic acid] are 21.8 nM and 65%.
Molecule `CC(CO)Oc1ccc(-c2cc3c(C(=O)O)c[nH]c3cc2Cl)cc1` (centres unmarked) [Example 183, 6-chloro-5-{4-[(1-hydroxypropan-2-yl)oxy]phenyl}-1H-indole-3-carboxylic acid] had an EC50 of 28.1 nM. Besides, the Emax under setting [1] was determined as 87.3%.
In the same order, the values of `COc1nc(N(C)CCO)ccc1-c1cc2c(C(=O)O)c[nH]c2cc1Cl` [Example 186, 6-chloro-5-{6-[(2-hydroxyethyl)(methyl)amino]-2-methoxypyridin-3-yl}-1H-indole-3-carboxylic acid] are 84.5 nM and 114%.
For `O=C(O)c1c[nH]c2cc(F)c(-c3ccc(C4CCCO4)cc3)c(F)c12` (single isomer, unassigned) [Example 152, 4,6-difluoro-5-[4-(tetrahydrofuran-2-yl)phenyl]-1H-indole-3-carboxylic acid], the EC50 came to 16.7 nM.
The molecule `CC(=O)N1CCC(c2ccc(-c3cc4c(C(=O)O)c[nH]c4cc3Cl)cc2)CC1` [Example 65, 5-[4-(1-acetylpiperidin-4-yl)phenyl]-6-chloro-1H-indole-3-carboxylic acid] gave an EC50 of 135 nM. The Emax under setting [1] was 103%.
In the same order, the values of `CCOc1ccc(-c2cc3c(C(=O)O)n[nH]c3cc2Cl)cc1` [Example 99, 6-Chloro-5-(4-ethoxyphenyl)-1H-indazole-3-carboxylic acid] are 38.5 nM and 94%.
In turn, `COc1ccc(-c2cc3c(C(=O)O)c[nH]c3cc2Cl)c(F)c1` [Example 44, 6-chloro-5-(2-fluoro-4-methoxyphenyl)-1H-indole-3-carboxylic acid] displayed an EC50 of 85 nM. For the same molecule, under setting [1], the Emax worked out at 78%.
On the same counts, the results for `COc1ccc(-c2cc3c(C(=O)O)n[nH]c3cc2Cl)cc1` [Example 97, 6-Chloro-5-(4-methoxyphenyl)-1H-indazole-3-carboxylic acid] are 202 nM and 94%.
On the same counts, the results for `COc1ccc(-c2cc3c(C(=O)O)c[nH]c3cc2F)cc1` [Example 34, 6-Fluoro-5-(4-methoxy-phenyl)-1H-indole-3-carboxylic acid] are 315 nM and 122%.
`O=C(O)c1n[nH]c2cc(Cl)c(-c3ccc(C4CCOCC4)cc3)cc12` [Example 104, 6-Chloro-5-(4-(tetrahydro-2H-pyran-4-yl)phenyl)-1H-indazole-3-carboxylic acid] had a half-maximal effective concentration (EC50) of 36.5 nM. Besides, under setting [1], the Emax came out at 88%.
On the same counts, the results for `Cc1ccc(-c2cc3c(C(=O)O)c[nH]c3cc2Cl)cc1` [Example 51, 6-chloro-5-(4-methylphenyl)-1H-indole-3-carboxylic acid] are 320 nM and 93%.
As for `O=C(O)c1n[nH]c2cc(Cl)c(-c3ccc(N4CCOCC4)cc3)cc12` [Example 128, 6-Chloro-5-(4-morpholinophenyl)-1H-indazole-3-carboxylic acid], the 50% effective concentration (EC50) is 19.8 nM. Besides, the Emax under setting [1] stood at 70%.
On the same counts, the results for `COc1cc(-c2c(F)cc3[nH]cc(C(=O)O)c3c2F)ccc1C1(O)CCC1` [Example 145] are 57.9 nM and 65.2%.
On the same counts, the results for `CS(=O)(=O)NC(=O)c1c[nH]c2cc(Cl)c(-c3ccc(C4(O)CCC4)cc3)cc12` [Example 147, 6-chloro-5-[4-(1-hydroxycyclobutyl)phenyl]-N-(methylsulfonyl)-1H-indole-3-carboxamide] are 10.1 nM and 132%.
`CC(C)c1ccc(-c2cc3c(C(=O)O)c[nH]c3cc2Cl)cc1` [Example 162, 6-chloro-5-[4-(propan-2-yl)phenyl]-1H-indole-3-carboxylic acid] yielded a concentration for a half-maximal effect (EC50) of 192 nM. Further, the Emax under setting [1] came out at 123%.
On the same counts, the results for `O=C(O)c1c[nH]c2cc(F)c(-c3ccc(C4CCCO4)cc3)cc12` (single isomer, unassigned) [Example 150, 6-fluoro-5-[4-(tetrahydrofuran-2-yl)phenyl]-1H-indole-3-carboxylic acid] are 165 nM and 112%.
In turn, `CS(=O)(=O)N1CCC(c2ccc(-c3cc4c(C(=O)O)c[nH]c4cc3Cl)cc2)C1` (centres unmarked) [Example 16, 6-chloro-5-{4-[1-(methylsulfonyl)pyrrolidin-3-yl]phenyl}-1H-indole-3-carboxylic acid] registered an EC50 of 412 nM. In addition, under setting [1], the Emax worked out at 114%.
In the same order, the values of `O=C(O)c1c[nH]c2cc(Cl)c(-c3ccc4c(c3)OC[C@H](CO)O4)cc12` [Example 144, 6-chloro-5-[(2S)-2-(hydroxymethyl)-2,3-dihydro-1,4-benzodioxin-6-yl]-1H-indole-3-carboxylic acid] are 236 nM and 119%.
`O=C(O)c1c[nH]c2cc(F)c(-c3ccc(C4CCOCC4)cc3)c(F)c12` [Example 166, 4,6-difluoro-5-[4-(tetrahydro-2H-pyran-4-yl)phenyl]-1H-indole-3-carboxylic acid] gave a concentration giving a half-maximal response (EC50) of 129 nM. Also, the Emax under setting [1] is 107%.
Molecule `O=S(=O)(O)c1c[nH]c2cc(Cl)c(-c3ccc(-c4ccccc4O)cc3)cc12` [Example 133, 6-Chloro-5-(2′-hydroxy-[1,1′-biphenyl]-4-yl)-1H-indole-3-sulfonic acid] registered a half-maximal effective concentration (EC50) of over 50000 nM.
`O=S(=O)(O)c1c[nH]c2cc(Cl)c(-c3ccc(C4CCOCC4)cc3)cc12` [Example 134, 6-Chloro-5-(4-(tetrahydro-2H-pyran-4-yl)phenyl)-1H-indole-3-sulfonic acid]: the half-maximal effective concentration (EC50) came to 82.8 nM. The Emax under setting [1] came out at 16%.
On the same counts, the results for `CC(O)(c1ccc(-c2cc3c(C(=O)O)n[nH]c3cc2Cl)cc1)C(F)(F)F` (centres unmarked) [Example 108, 6-Chloro-5-(4-(1,1,1-trifluoro-2-hydroxypropan-2-yl)phenyl)-1H-indazole-3-carboxylic acid] are 94.4 nM and 92%.
